In publication PMC12040169 (PLOS Biology, 2025):

Assay: in vitro
Settings: human, hela cells, % viability

Row | SMILES | viability at 28.5 h, 10 µM
1 | CCC(CC)C(=O)N1CCC(CNc2cnc(-c3ccc(S(C)(=O)=O)cc3)cn2)CC1 [CBK172021] | 99.5%
2 | CNC(=O)Nc1cc(C(O)(C(F)(F)F)C(F)(F)F)ccc1C [CBK006970] | 113%
3 | O=C(O)CSCC(=O)N(Cc1ccccc1)c1nc(-c2ccccc2)c(-c2ccccc2)s1 [CBK296138] | 97.5%
4 | Cc1ccc(OCc2ccc(Cl)s2)c(Br)c1 [CBK002840] | 79%
5 | O=C(O)C1C2C=CC3(CN(C/C=C/c4ccccc4)C(=O)C13)O2 (stereo not drawn) [CBK286946] | 119%
6 | COc1ccccc1C1(NC(=O)CCn2cccn2)CCCC1 [CBK283626] | 103%
7 | CCn1c(CN2CCCC2c2noc(C)n2)nc2cc(F)ccc21 (stereo not drawn) [CBK305250] | 55.9%
8 | CCOC(=O)N1CCC(NS(=O)(=O)c2ccc(NC(C)=O)cc2)CC1 [CBK045470] | 97.8%
9 | CCCCN(C(C)=O)c1c(CC)nc2ccc(C(=O)N(C)CCN(C)C)cn12 [CBK145739] | 91.7%
10 | O=S1(=O)c2cc(/N=C/c3c(O)ccc4ccccc34)ccc2-c2ccc(/N=C/c3c(O)ccc4ccccc34)cc21 [CBK261240] | 84.7%
11 | Cc1cc(C(=O)N2CCC(C(=O)c3ccnn3C)CC2)sc1C [CBK284428] | 89.3%
12 | CCN(CC)CCCC(C)Nc1ccnc2cc(Cl)ccc12 (stereo not drawn) [CBK017143] | 85.6%
13 | CC(NC(=O)c1cnc(-c2ccc(Cl)cc2)c(-c2ccc(O)cc2)c1)c1ccc(F)cc1 (stereo not drawn) [CBK036751] | 89.9%
14 | O=C(O)c1ccc(Cl)c(-c2ccc(/C=N\Nc3ccc([N+](=O)[O-])cn3)o2)c1 [CBK263431] | 93.9%
15 | CC1CC1C(=O)NCCN1CCC(O)(c2ccc(F)cc2)CC1 (stereo not drawn) [CBK283168] | 96.7%
16 | CCOC(=O)c1cn(CC)c2cc(N3CCSCC3)c(F)cc2c1=O [CBK307143] | 89.8%
17 | O=C(CSc1ccc(Br)cc1)NCc1ccco1 [CBK269701] | 86.5%
18 | O=C(/C=N/O)Nc1cc(C(F)(F)F)ccc1Cl [CBK288405] | 107%
19 | Cc1cc(C(=O)C(C)Oc2ccc(-c3nnco3)cc2)c(C)n1-c1ccccc1 (stereo not drawn) [CBK297104] | 101%
20 | O=C(NCCN1CCOCC1)c1ccc2nccnc2c1 [CBK268806] | 108%
21 | Cc1cc(C(=O)NCCCn2ccnc2)no1 [CBK268145] | 103%
22 | O=C(CN1C2CCC1CC(O)(c1ccccc1F)C2)NCC1CC1 (stereo not drawn) [CBK281942] | 93.4%

Row | SMILES | viability at 28.5 h, 10 µM
23 | N#Cc1cccc(Nc2cncc(-c3cccc(C(=O)NCCO)c3)n2)c1 [CBK037810] | 97.1%
24 | COc1cc(Cl)cc(CNCCO)c1OC(C)C [CBK269196C] | 86.7%
25 | CN(C)C(CNc1cncc(-c2cccc(Cl)c2)n1)c1cccnc1 (stereo not drawn) [CBK037247] | 113%
26 | COc1cccc(-c2nc(SCC(=O)Nc3ccc([N+](=O)[O-])cc3)[nH]c(=O)c2C#N)c1 [CBK264912] | 105%
27 | COc1cccc2ncn(CCCc3c(C)n[nH]c3C)c(=O)c12 [CBK307153] | 82.9%
28 | COc1cc(/C=N/NC(=O)CNC(=O)c2ccncc2)ccc1O [CBK262013] | 102%
29 | Cc1oc(-c2ccccc2)nc1C(=O)O [CBK047490] | 98.4%
30 | CC(=O)O[B-]1(OC(C)=O)N(c2ccc(S(N)(=O)=O)cc2)N=C(c2ccccc2)N=[N+]1c1ccccc1 [CBK260879] | 87.1%
31 | NC(=O)c1cccnc1N1CCN(CCCN(c2ccc(F)cc2)c2ccc(F)cc2)CC1 [CBK025341C] | 110%
32 | CC(=O)N1CCC(C(=O)NC(=O)NC2CCCCC2)CC1 [CBK034847] | 99.4%
33 | Cc1nc2ncnc(N3CCc4ccccc43)c2[nH]1 [CBK291228] | 89.2%
34 | Nn1cnn2c(SCc3ccccc3)nnc12 [CBK263188] | 112%
35 | O=C1CCC(=O)N1CCOc1nccnc1N1CCN(CCc2ccccn2)CC1 [CBK084309] | 109%
36 | Cc1cc(COc2cc(C(F)(F)F)ccn2)no1 [CBK115787] | 134%
37 | CS(=O)(=O)Nc1ccc2c(ccn2Cc2ccccc2)c1 [CBK159527] | 104%
38 | CSCCN1CCC2(CC1)CN(CCO)c1ccccc12 [CBK126771] | 94.6%
39 | Cc1cc(C2CCCCCN2C(=O)c2ccc(F)cc2)on1 (stereo not drawn) [CBK285447] | 106%
40 | COC(=O)CCc1ccc(S(=O)(=O)N2CCN(Cc3csc(-c4ccccc4)n3)CC2)cc1 [CBK062812] | 91.8%
41 | COc1ccc(-c2nc(-c3cc4ccccc4o3)cnc2N)cc1OC [CBK064099] | 63.2%
42 | Cn1nccc1C(=O)C1CCN(C(=O)c2cccs2)CC1 [CBK284424] | 95.1%
43 | Cc1noc(C)c1S(=O)(=O)N1CCOCC1c1cccc(F)c1 (stereo not drawn) [CBK304171] | 109%
44 | CC(C)c1c(SCCN)[nH]c2ccccc12 [CBK017265C] | 96%

Row | SMILES | viability at 28.5 h, 10 µM
45 | O=C(c1cccc(F)c1)N1C2CCC1CC(O)(c1cccnc1F)C2 (stereo not drawn) [CBK284422] | 104%
46 | O=C(CN1CCCCC1)Nc1sc2c(c1C(=O)Nc1ccccc1)CCCC2 [CBK267974] | 104%
47 | O=CN1CCN(S(=O)(=O)c2ccc3c(c2)Cc2cc(S(=O)(=O)N4CCN(C=O)CC4)ccc2-3)CC1 [CBK264351] | 98.8%
48 | CNC(=O)C1(Cc2ccc(-c3ccccc3)cc2)CCN(C(=O)CCc2ccccc2)CC1 [CBK285765] | 91.8%
49 | Cn1c(COc2cncc(Cl)n2)cc2ccccc21 [CBK176002] | 89.9%
50 | O=C(Cc1c[nH]c2ccccc12)N1CCC2(CCN(C(=O)c3ccc4[nH]c(=O)[nH]c4c3)C2)C1 (stereo not drawn) [CBK131452] | 90.8%
51 | Cc1nc(C2CCCN(C(=O)C3CCC3)C2)nc2c1CCCN2Cc1ccccc1 (stereo not drawn) [CBK286257] | 78.2%
52 | COc1ccc(-c2cc(C(=O)Nc3nc4ccc(S(C)(=O)=O)cc4s3)c3ccccc3n2)cc1 [CBK033551] | 95.9%
53 | CCC(CO)Nc1cncc(-c2cccc(F)c2)n1 (stereo not drawn) [CBK065752] | 96.1%
54 | Cc1ccc(N(CC(=O)O)S(=O)(=O)c2ccc(C)cc2)cc1 [CBK262409] | 106%
55 | CN(C)S(=O)(=O)N1CCC(C(=O)O)(c2ccccc2)CC1 [CBK286681] | 90.3%
56 | CC(C)NC(=O)c1sc2ccccc2c1C1CCN(C(=O)CCc2ccccc2)C1 (stereo not drawn) [CBK285874] | 99.2%
57 | Cc1cc(C)c2c3c(sc2n1)C(=O)N(C)CC(=O)N3 [CBK287959] | 83.8%
58 | O=C(NCc1cccs1)c1ccc2nc[nH]c2c1 [CBK153320] | 92.1%
59 | CN1CCN(CC(O)COCc2ccc3c(c2)OCO3)CC1 (stereo not drawn) [CBK278260C] | 81.4%
60 | CCOC(=O)C1=C(C)NC(=O)NC1c1cccs1 (stereo not drawn) [CBK086430] | 78%
61 | COc1cc(OC)nc(CN2C(=O)C3(CC(=O)N(CCCN4C(=O)c5ccccc5C4=O)C3=O)c3cc(C)ccc32)n1 (stereo not drawn) [CBK075992] | 91.5%
62 | Cc1cc(NS(=O)(=O)c2cccc3nsnc23)n(C)n1 [CBK067246] | 95.4%
63 | CC(=O)N1CCN(CC[C@@H]2CC[C@H](O)[C@@H](C(=O)N(C)Cc3ccccc3)O2)CC1 [CBK288716] | 93.3%
64 | CCCS(=O)(=O)NC(C)c1cnn(-c2ccc(OC)cc2)c1C (stereo not drawn) [CBK307319] | 115%
65 | CCN(CC)C(=O)CN(CCc1ccc(OC)c(OC)c1)C(=O)NCc1ccc(Cl)cc1 [CBK158742] | 110%
66 | O=[N+]([O-])c1ccc(CSc2nnc(-c3cccs3)n2Cc2ccco2)cc1 [CBK267588] | 86.6%

Row | SMILES | viability at 28.5 h, 10 µM
67 | O=S(=O)(Nc1cccnc1N1CCOCC1)c1cc(C(F)(F)F)cc(C(F)(F)F)c1 [CBK062306] | 122%
68 | CCN(CC)CCN(C)C1CCN(C)CC1 [CBK261917] | 94.7%
69 | Cc1ccc(OCCSc2nc3ccccc3n2CC(=O)O)c(C(C)C)c1 [CBK300483] | 105%
70 | COc1ccc(Sc2ncccc2C(F)(F)F)cc1OC [CBK093760] | 100%
71 | CC(=O)NCC(=O)N1CCC2(CC1)CC(=O)c1cc(Br)ccc1O2 [CBK156447] | 106%
72 | COc1ccc(S(=O)(=O)N(Cc2cc(F)cc(F)c2)C2CCNCC2)cc1 [CBK165292T] | 89.8%
73 | Cc1cc(C)n(CC(=O)N2CCCC(c3cc4cccnc4[nH]3)C2)n1 (stereo not drawn) [CBK284928] | 96.2%
74 | CCN(CC)CCC(=O)c1ccc(Cl)cc1 [CBK015906C] | 101%
75 | O=C(O)CNC(=O)CN1C(=O)c2ccccc2C1=O [CBK264077] | 98.6%
76 | CC(=O)Nc1ccc(Sc2ccccn2)cc1 [CBK085853] | 101%
77 | COc1ccc2[nH]cc(CCNC(=O)C3CC(=O)c4ccccc43)c2c1 (stereo not drawn) [CBK116221] | 97.3%
78 | Cc1c(NC(=S)NC(=O)C(C)C)cccc1-c1nc2ncccc2o1 [CBK269712] | 98.3%
79 | O=C(Nc1ccccn1)Nc1ccccn1 [CBK015518] | 95.5%
80 | O=C1CC(c2ccccc2)c2snc(C(=O)O)c2N1 (stereo not drawn) [CBK287111] | 90.5%
81 | CCc1nn(CC(=O)N2CCCCCC2)c(=O)c2cc3occc3n12 [CBK283677] | 86.9%
82 | Cc1cccc(C(=O)N2CCCC(C)C2)c1 (stereo not drawn) [CBK074057] | 95.4%
83 | Fc1ccc(-c2cn(-c3cncnc3)nn2)c(F)c1 [CBK112989] | 96.4%
84 | c1cncc(COc2cncc(N3CCCC3)n2)c1 [CBK115892] | 88.4%
85 | CCOC(=O)c1ccc(COc2cccc(-c3cnc4ccccc4n3)c2)cc1 [CBK266395] | 94.2%
86 | CCOc1ccc(Cl)cc1CN(C)C(=O)NCC(C)CN(C)C (stereo not drawn) [CBK307500] | 121%

Same assay, conditions: human, hela cells, % viability, bulk resorufin, single well

Row | SMILES | viability at 28.5 h, 10 µM
87 | CN1C(=O)C(=CNCCCC(=O)O)C(=O)N(C)C1=O [CBK264420] | 90.4%
88 | CCOC(=O)C1(c2ccccc2)CCN(C(=O)c2ccc3occc3c2)CC1 [CBK132187] | 92.2%
89 | Cc1cccc(OP(=O)(O)Oc2cccc(C)c2C)c1C [CBK261316] | 91.7%
90 | CCOc1cc(C=C2C(=O)NC(=S)NC2=O)cc(Br)c1OCC(=O)O [CBK265411] | 98.4%
